Where two headings read alike, the source gives them in different places.
Experiments:
Rat Paw Edema = experiment: Rat paw edema assay (carrageenan); format: in vivo, Sprague-Dawley rat
Description: Male Sprague-Dawley rats (150-200 g) are fasted overnight and are given po either vehicle (1% methocel or 5% Tween 80) or a test compound. One hr later, a line is drawn using a permanent marker at the level above the ankle in one hind paw to define the area of the paw to be monitored. The paw volume (V0) is measured using a plethysmometer (Ugo-Basile, Italy) based on the principle of water displacement. The animals are then injected subplantarly with 50 μl of 1% carrageenan solution in saline (FMC Corp, Maine) into the paw using an insulin syringe with a 25-gauge needle (i.e., 500 μg carrageenan per paw). Three hr later, the paw volume (V3) is measured and the increases in paw volume (V3 -V0) are calculated. The animals are sacrificed by CO2 asphyxiation and the absence or presence of stomach lesions scored. Data is compared with the vehicle-control values and percent inhibition calculated. All treatment groups are coded to eliminate observer bias.

cyclooxygenase-1 = cyclooxygenase-1 (Homo sapiens, UniProt P23219); experiment: cell-based; settings: PGE2 production, human U-937 cells, 10 μM arachidonic acid; read-out: Cox-1 IC50
cyclooxygenase-1, sequence (P23219 24-599): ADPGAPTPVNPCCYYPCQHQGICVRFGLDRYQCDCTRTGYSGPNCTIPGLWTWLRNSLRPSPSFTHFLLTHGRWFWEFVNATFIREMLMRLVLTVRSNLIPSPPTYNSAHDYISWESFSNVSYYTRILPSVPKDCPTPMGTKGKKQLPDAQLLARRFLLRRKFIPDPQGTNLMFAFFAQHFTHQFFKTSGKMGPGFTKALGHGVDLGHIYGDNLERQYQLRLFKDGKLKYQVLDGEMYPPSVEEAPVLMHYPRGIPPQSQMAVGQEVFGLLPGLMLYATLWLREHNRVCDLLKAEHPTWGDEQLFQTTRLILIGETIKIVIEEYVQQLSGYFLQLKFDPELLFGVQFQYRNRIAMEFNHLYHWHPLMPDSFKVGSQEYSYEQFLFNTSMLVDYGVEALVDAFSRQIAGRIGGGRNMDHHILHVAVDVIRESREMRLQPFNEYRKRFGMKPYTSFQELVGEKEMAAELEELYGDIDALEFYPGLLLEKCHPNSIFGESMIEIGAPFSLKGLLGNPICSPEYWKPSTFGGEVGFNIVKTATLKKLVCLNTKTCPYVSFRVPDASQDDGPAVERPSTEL
Description: (§1) Compounds were tested as inhibitors of cyclooxygenase activity in whole cell cyclooxygenase assays. Both of these assays measured prostaglandin E2 synthesis in response to arachidonic acid, using a radioimmunoassay. Cells used for these assays were human osteosarcoma 143 cells (which specifically express cyclooxygenase-2) and human U-937 cells (which specifically express cyclooxygenase-1). In these assays, 100% activity is defined as the difference between prostaglandin E2 synthesis in the absence and presence of arachidonate addition.
(§2) For cyclooxygenase assays, osteosarcoma cells are cultured in 1 mL of media in 24-well multidishes (Nunclon) until confluent (1-2×10^5 cells/well). U-937 cells are grown in spinner flasks and resuspended to a final density of 1.5×10^6 cells/mL in 24-well multidishes (Nunclon). Following washing and resuspension of osteosarcoma and U-937 cells in 1 mL of Hanks balanced salts solution (HBSS), 2 μL of a DMSO solution of test compound or DMSO vehicle is added, and samples gently mixed. All assays are performed in triplicate. Samples are then incubated for 5 or 15 minutes at 37° C., prior to the addition of arachidonic acid. Arachidonic acid (peroxide-free, Cayman Chemical) is prepared as a 10 mM stock solution in ethanol and further diluted 10-fold in HBSS. An aliquot of 10 μL of this diluted solution is added to the cells to give a final arachidonic acid concentration of 10 μM. Control samples are incubated with ethanol vehicle instead of arachidonic acid. Samples are again gently mixed and incubated for a further 10 min at 37° C. For osteosarcoma cells, reactions are then stopped by the addition of 100 μL of 1N HCl, with mixing and by the rapid removal of the solution from cell monolayers. For U-937 cells, reactions are stopped by the addition of 100 μL of 1N HCl, with mixing. Samples are then neutralized by the addition of 100 μL of 1N NaOH and PGE2 levels measured by radioimmunoassay.
(§3) In the assay, inhibition is determined by measuring the amount of prostaglandin E2 (PGE2) synthesized in the presence of arachidonic acid, cyclooxygenase-1 or cyclooxygenase-2 and a putative inhibitor.

cyclooxygenase-2 = molecular target: T1, cyclooxygenase-2 (Homo sapiens, UniProt P35354); experiment: cell-based; settings: PGE2 production, human osteosarcoma 143 cells, 10 μM arachidonic acid; read-out: Cox-2 IC50
T1 sequence (P35354 18-604): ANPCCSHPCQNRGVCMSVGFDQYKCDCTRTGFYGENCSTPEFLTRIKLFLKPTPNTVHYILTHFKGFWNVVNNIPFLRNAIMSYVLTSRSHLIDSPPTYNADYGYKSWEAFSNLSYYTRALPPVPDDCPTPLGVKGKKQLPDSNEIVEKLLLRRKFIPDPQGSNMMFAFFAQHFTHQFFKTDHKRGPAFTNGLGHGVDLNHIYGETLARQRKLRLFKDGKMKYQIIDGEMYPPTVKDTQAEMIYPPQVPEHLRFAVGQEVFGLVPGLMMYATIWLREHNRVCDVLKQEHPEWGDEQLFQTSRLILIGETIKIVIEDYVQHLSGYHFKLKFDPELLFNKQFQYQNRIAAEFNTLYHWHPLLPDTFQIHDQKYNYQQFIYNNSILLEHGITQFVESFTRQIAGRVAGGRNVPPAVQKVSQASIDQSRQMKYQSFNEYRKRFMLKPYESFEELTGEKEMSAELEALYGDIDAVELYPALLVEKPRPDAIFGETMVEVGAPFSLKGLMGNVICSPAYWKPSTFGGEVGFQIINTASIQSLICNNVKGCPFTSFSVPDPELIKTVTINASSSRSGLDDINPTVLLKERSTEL
Description: as §1, §2, §3

[1] = edema inhibition, rat, po 1 hr before carrageenan, paw volume at 3 hr, read-out: ED30

SMILES	ED30 (Rat Paw Edema; Rattus norvegicus, po, 3 h) [mg/kg]	IC50 (cyclooxygenase-1) [nM]	IC50 (cyclooxygenase-2) [nM]	ED30 (Rat Paw Edema; [1]) [mg/kg]
COc1ccc2c(c1)c(C(C)CC(=O)[O-])c(C)n2Cc1ccc(Br)cc1.[Na+] (racemic)	0.7	–	–	–
COc1ccc2c(c1)c(C(C)CC(=O)[O-])c(C)n2Cc1ccc(Br)cc1.[Na+] (racemic) [sodium salt]	–	> 10000	4	–
COc1ccc2c(c1)c([C@@H]1C[C@H]1C(=O)[O-])c(C)n2Cc1ccc(Br)cc1.[Na+] (relative stereo)	0.6	–	–	–
COc1ccc2c(c1)c([C@@H]1C[C@H]1C(=O)[O-])c(C)n2Cc1ccc(Br)cc1.[Na+] (relative stereo) [sodium salt]	–	> 10000	46	–
COc1ccc2c(c1)c(CC(=O)O)c(C)n2C(=O)c1ccc(Cl)cc1 [Indomethacin, reference compound]	–	–	–	0.9
COc1ccc2c(c1)c(C(C)C(=O)O)c(C)n2Cc1ccc(Cl)cc1 (stereo not drawn) [MK-555, α-(1-p-chlorobenzyl-2-methyl-5-methoxy-3-indolyl)propionic acid, reference compound]	–	–	–	3

Source: patent publication US5604253A, “N-benzylindol-3-yl propanoic acid derivatives as cyclooxygenase inhibitors” (priority 1995, dated 1997)
